Laboratory results: ChEMBL document CHEMBL5042514, “Picolylamine-functionalized benz[e]indole squaraine dyes: Synthetic approach, characterization and in vitro efficacy as potential anticancer phototherapeutic agents” (Eur J Med Chem, 2022)
Activity calls are given as the source filed them. No cut-off for these calls is given here.

How the values were obtained:
[1] = Dark toxicity against human NHDF cells assessed as reduction in cell viability incubated for 24 hrs by MTT assay; type: cell-based
[2] = Phototoxicity against human NHDF cells assessed as reduction in cell viability preincubated for 24 hrs followed by 7 mins of LED light irradiation by MTT assay; type: toxicity, cell-based
[3] = Phototoxicity ratio of IC50 for cytotoxicity against human NHDF cells assessed as reduction in cell viability in dark to IC50 for phototoxicity against human NHDF cells upon LED light irradiation; type: toxicity, cell-based; details: read-out: Ratio IC50
[4] = Dark toxicity against human Caco-2 cells assessed as reduction in cell viability incubated for 24 hrs by MTT assay; type: cell-based
[5] = Phototoxicity against human Caco-2 cells assessed as reduction in cell viability preincubated for 24 hrs followed by 7 mins of LED light irradiation by MTT assay; type: toxicity, cell-based; details: Caco-2, light or radiation study
[6] = Phototoxicity ratio of IC50 for cytotoxicity against human Caco-2 cells assessed as reduction in cell viability in dark to IC50 for phototoxicity against human Caco-2 cells upon LED light irradiation; type: toxicity, cell-based
[7] = Selectivity ratio of IC50 for phototoxicity against human NHDF cells upon LED light irradiation to IC50 for phototoxicity against human Caco-2 cells upon LED light irradiation; type: toxicity, cell-based; details: NHDF cells versus Caco-2 cells, read-out: Ratio IC50
[8] = Dark toxicity against human HeLa cells assessed as reduction in cell viability incubated for 24 hrs by MTT assay; type: cell-based
[9] = Phototoxicity against human HeLa cells assessed as reduction in cell viability preincubated for 24 hrs followed by 7 mins of LED light irradiation by MTT assay; type: toxicity, cell-based; details: light or radiation study
[10] = Phototoxicity ratio of IC50 for cytotoxicity against human HeLa cells assessed as reduction in cell viability in dark to IC50 for phototoxicity against human HeLa cells upon LED light irradiation; type: toxicity, cell-based
[11] = Selectivity ratio of IC50 for phototoxicity against human NHDF cells upon LED light irradiation to IC50 for phototoxicity against human HeLa cells upon LED light irradiation; type: toxicity, cell-based; details: NHDF cells versus HeLa cells, read-out: Ratio IC50
[12] = Dark toxicity against human MCF7 cells assessed as reduction in cell viability incubated for 24 hrs by MTT assay; type: cell-based
[13] = Phototoxicity against human MCF7 cells assessed as reduction in cell viability preincubated for 24 hrs followed by 7 mins of LED light irradiation by MTT assay; type: toxicity, cell-based; details: MCF7, light or radiation study
[14] = Phototoxicity ratio of IC50 for cytotoxicity against human MCF7 cells assessed as reduction in cell viability in dark to IC50 for phototoxicity against human MCF7 cells upon LED light irradiation; type: toxicity, cell-based
[15] = Selectivity ratio of IC50 for phototoxicity against human NHDF cells upon LED light irradiation to IC50 for phototoxicity against human MCF7 cells upon LED light irradiation; type: toxicity, cell-based; details: NHDF cells versus MCF7 cells, read-out: Ratio IC50
[16] = Dark toxicity against human PC-3 cells assessed as reduction in cell viability incubated for 24 hrs by MTT assay; type: cell-based
[17] = Phototoxicity against human PC-3 cells assessed as reduction in cell viability preincubated for 24 hrs followed by 7 mins of LED light irradiation by MTT assay; type: toxicity, cell-based; details: PC-3, light or radiation study
[18] = Phototoxicity ratio of IC50 for cytotoxicity against human PC-3 cells assessed as reduction in cell viability in dark to IC50 for phototoxicity against human PC-3 cells upon LED light irradiation; type: toxicity, cell-based
[19] = Selectivity ratio of IC50 for phototoxicity against human NHDF cells upon LED light irradiation to IC50 for phototoxicity against human PC-3 cells upon LED light irradiation; type: toxicity, cell-based; details: NHDF cells versus PC-3 cells, read-out: Ratio IC50
[20] = tested on: HeLa; assay: Induction of morphological change in human HeLa cells assessed as rounded cell morphology at 0.25 uM preincubated for 24 hrs followed by 7 mins of LED light irradiation and measured upto 48 hrs by microscopic analysis; type: functional, cell-based; details: time min <=4327
[21] = tested on: HeLa; assay: Induction of morphological change in human HeLa cells assessed as cell shrinkage at 0.25 uM preincubated for 24 hrs followed by 7 mins of LED light irradiation and measured upto 48 hrs by microscopic analysis; type: functional, cell-based; details: time min <=4327
[22] = tested on: HeLa; assay: Induction of morphological change in human HeLa cells assessed as plasma membrane rupture at 1 uM preincubated for 24 hrs followed by 7 mins of LED light irradiation and measured upto 48 hrs by microscopic analysis; type: functional; details: time min <=4327
[23] = tested on: HeLa; assay: Induction of morphological change in human HeLa cells assessed as intracellular space dilation at 1 uM preincubated for 24 hrs followed by 7 mins of LED light irradiation and measured upto 48 hrs by microscopic analysis; type: functional, cell-based; details: time min <=4327
[24] = Genotoxicity in human HeLa cells assessed as genetic damage index at 1 uM measured after 24 hrs in absence of light by alkali comet assay; type: toxicity, cell-based
[25] = Drug localization in mitochondria of human HeLa cells at 1 uM incubated for 24 hrs by Rhodamine 123 based confocal laser scanning microscopy analysis; type: ADME
[26] = tested on: HeLa; assay: Induction of cell cycle arrest in human HeLa cells assessed as accumulation in G0/G1 phase at 1 uM by PI staining based flow cytometry analysis (reference value: 67.03 %); type: functional
[27] = tested on: HeLa; assay: Induction of cell cycle arrest in human HeLa cells assessed as accumulation in S phase at 1 uM by PI staining based flow cytometry analysis (reference value: 32.14 %); type: functional
[28] = tested on: HeLa; assay: Induction of cell cycle arrest in human HeLa cells assessed as accumulation in G2/M phase at 1 uM by PI staining based flow cytometry analysis (reference value: 4.79 %); type: functional
[29] = tested on: HeLa; assay: Induction of cell cycle arrest in human HeLa cells assessed as accumulation in G0/G1 phase at 0.24 uM by PI staining based flow cytometry analysis (reference value: 67.03 %); type: functional
[30] = tested on: HeLa; assay: Induction of cell cycle arrest in human HeLa cells assessed as accumulation in S phase at 0.24 uM by PI staining based flow cytometry analysis (reference value: 32.14 %); type: functional
[31] = tested on: HeLa; assay: Induction of cell cycle arrest in human HeLa cells assessed as accumulation in G2/M phase at 0.24 uM by PI staining based flow cytometry analysis (reference value: 4.79 %); type: functional
[32] = tested on: HeLa; assay: Induction of cell cycle arrest in human HeLa cells assessed as accumulation in G0/G1 phase at 0.24 uM with red light radiation for 7 mins by PI staining based flow cytometry analysis (reference value: 63.18 %); type: functional
[33] = tested on: HeLa; assay: Induction of cell cycle arrest in human HeLa cells assessed as accumulation in S phase at 0.24 uM with red light radiation for 7 mins by PI staining based flow cytometry analysis (reference value: 32.09 %); type: functional
[34] = tested on: HeLa; assay: Induction of cell cycle arrest in human HeLa cells assessed as accumulation in G2/M phase at 0.24 uM with red light radiation for 7 mins by PI staining based flow cytometry analysis (reference value: 4.73 %); type: functional
[35] = tested on: HeLa; assay: Induction of morphological change in human HeLa cells assessed as reduction in adhesion at 0.25 uM preincubated for 24 hrs followed by 7 mins of LED light irradiation and measured upto 48 hrs by microscopic analysis; type: functional, cell-based; details: time min <=4327
[36] = Drug localization in lysosome of human HeLa cells at 1 uM incubated for 24 hrs by Green Fluorescent Protein based confocal laser scanning microscopy analysis; type: ADME, subcellular
[37] = tested on: HeLa; assay: Induction of apoptosis in human HeLa cells at 0.24 uM preincubated for 24 hrs followed by 7 mins LED light irradiation and measured after 24 hrs by PI staining based flow cytometry analysis; type: functional; details: time 2887 min, 48.12 h
[38] = tested on: HeLa; assay: Induction of apoptosis in human HeLa cells assessed as increase in DNA cleavage at 1 uM preincubated for 24 hrs followed by 7 mins LED light irradiation and measured after 24 hrs by PI staining based flow cytometry analysis; type: functional; details: time 2887 min, 48.12 h
[39] = target: Albumin (Homo sapiens, UniProt P02768); assay: Binding affinity to human serum albumin assessed as binding constant by fluorescence based assay
Albumin, sequence (P02768 whole entry): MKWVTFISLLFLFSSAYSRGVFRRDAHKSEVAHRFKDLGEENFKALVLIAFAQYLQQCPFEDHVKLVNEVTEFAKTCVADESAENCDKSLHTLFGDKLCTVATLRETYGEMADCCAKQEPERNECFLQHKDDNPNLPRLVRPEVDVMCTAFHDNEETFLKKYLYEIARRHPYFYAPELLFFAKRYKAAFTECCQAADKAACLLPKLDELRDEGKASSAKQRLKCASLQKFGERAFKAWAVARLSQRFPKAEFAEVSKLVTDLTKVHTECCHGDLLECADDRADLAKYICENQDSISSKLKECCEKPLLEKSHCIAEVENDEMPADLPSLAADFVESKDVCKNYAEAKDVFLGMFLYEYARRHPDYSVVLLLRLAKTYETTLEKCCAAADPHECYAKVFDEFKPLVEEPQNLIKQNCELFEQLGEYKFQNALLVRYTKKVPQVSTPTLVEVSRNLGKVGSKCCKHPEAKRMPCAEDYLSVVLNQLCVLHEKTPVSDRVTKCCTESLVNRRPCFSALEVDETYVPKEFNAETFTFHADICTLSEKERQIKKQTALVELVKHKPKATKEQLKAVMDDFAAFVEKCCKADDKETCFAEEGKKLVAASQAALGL

CCN1/C(=C/C2=C(NCc3ccccn3)C(=C/C3=[N+](CC)c4ccc5ccccc5c4C3(C)C)/C2=O)C(C)(C)c2c1ccc1ccccc21.[I-] gave an IC50 at 24 h [1] of 2.13 µM, an IC50 at 24 h [2] of 0.263 µM and a selectivity ratio [3] of 8.1. The IC50 at 24 h [4] was 2.02 µM, the IC50 [5] was 0.092 µM and the “Ratio IC50” value [6] was 21.9. For the same compound, the selectivity ratio [7] was 2.86, the IC50 at 24 h [8] was 2.18 µM and the IC50 [9] was 0.24 µM. For the same compound, the “Ratio IC50” value [10] was 9.1, the selectivity ratio [11] was 1.1 and the IC50 at 24 h [12] was 1.61 µM. For the same compound, the IC50 [13] was 0.165 µM, the “Ratio IC50” value [14] was 9.8 and the selectivity ratio [15] was 1.59. The IC50 at 24 h [16] was 2.07 µM, the IC50 [17] was 0.087 µM and the “Ratio IC50” value [18] was 23.8. The selectivity ratio [19] was 3.02, the Activity [20] was “Active” and the Activity [21] was “Active”. The Activity [22] was “Active”, the Activity [23] was “Active” and the Activity [24] was 24 a.u. For the same compound, the Drug uptake [25] was “Active”, the Activity [26] was 68.34% and the Activity [27] was 26.68%. It also gave an Activity [28] of 4.98%, an Activity [29] of 73.97% and an Activity [30] of 22.04%. For the same compound, the Activity [31] was 4%, the Activity [32] was 67.14% and the Activity [33] was 16.91%. The Activity [34] was 15.95%, the Activity [35] was “Active” and the Drug uptake [36] was “Not Active”. For the same compound, the Activity [37] was 2%, the Activity [38] was 68% and the Kb [39] was 6.93 10^5/M.
